Results: PubChem BioAssay (NCI)
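Cells were grown in 96-well plates and exposed to each compound for 48 hours at five concentrations; endpoints were interpolated linearly between bracketing concentrations, or set to the highest concentration if not reached. TGI denotes the concentration required for complete inhibition of growth.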

Key:
Test in all cases: growth of human tumour cells (NCI), 48 h
[1] = test system: HOP-62 NSCLC
[2] = test system: HOP-92 NSCLC
[3] = test system: IGROV1 ovarian
[4] = test system: NCI-H23 lung
[5] = test system: NCI-H460 lung
[6] = test system: NCI/ADR-RES ovarian
[7] = test system: OVCAR-8 ovarian
[8] = test system: PC-3 prostate
[9] = test system: SK-MEL-2 melanoma
[10] = test system: TK-10 renal

O=c1[nH]c2nc3ccccc3nc2[nH]c1=O
TGI [1]: > 100 µM
TGI [2]: > 100 µM
TGI [3]: > 100 µM
TGI [4]: > 100 µM
TGI [5]: > 100 µM
TGI [6]: > 100 µM
TGI [7]: > 100 µM
TGI [8]: > 100 µM
TGI [9]: > 100 µM
TGI [10]: > 100 µM

O=c1c(Cc2ccc(Cl)cc2)nnc2sc(-c3ccc(-c4ccc(F)c(Cl)c4)o3)nn12
TGI [1]: > 100 µM
TGI [2]: > 100 µM
TGI [3]: > 100 µM
TGI [4]: > 100 µM
TGI [5]: > 100 µM
TGI [6]: > 100 µM
TGI [7]: > 100 µM
TGI [8]: > 100 µM
TGI [9]: > 100 µM
TGI [10]: > 100 µM

O=C1C=CC(=O)c2c(O)c(N3CCC[C@H]3CO)c(Cl)c(O)c21
TGI [1]: > 10 µM
TGI [2]: 3.13 µM
TGI [3]: > 7.96 µM
TGI [4]: 4.61 µM
TGI [5]: > 10 µM
TGI [6]: 4.06 µM
TGI [7]: > 6.11 µM
TGI [8]: > 10 µM
TGI [9]: 5.53 µM
TGI [10]: 5.57 µM

Cc1cc(S(=O)(=O)/N=C(/C(=C=[N-])C#N)[n+]2ccc(N(C)C)cc2)c(SCC(=O)O)cc1Cl
TGI [1]: > 100 µM
TGI [2]: 70.4 µM
TGI [3]: > 100 µM
TGI [4]: > 100 µM
TGI [5]: > 100 µM
TGI [6]: > 100 µM
TGI [7]: > 100 µM
TGI [8]: > 100 µM
TGI [9]: > 100 µM
TGI [10]: > 100 µM
